# Several values for one entry are separate records, joined by “and”; a condition that tells them apart may be missing. Equal values may be shown once. Read-outs that look alike come from different tables or passages of the source.
# Assays:
# Format in all cases: biochemical
# Sirt3 = molecular target: T1, Sirt3 (Homo sapiens, UniProt Q9NTG7); experiment: Fluorescence-based ZMAL deacetylase activity assay, Sirt3; set-up: key to Sirt3 inhibition Δ (class) / Sirt3 inhibition PSS [365 nm] (class): n.i.: no inhibition detected (<30 % @ 100 μM); u.i.: unspecific interactions
# T1 construct: Expression and purification of Sirt1_133−747, Sirt2_56−356, and Sirt3_118−395 was carried out as described previously; made in house
# T1 sequence (Q9NTG7 118-395): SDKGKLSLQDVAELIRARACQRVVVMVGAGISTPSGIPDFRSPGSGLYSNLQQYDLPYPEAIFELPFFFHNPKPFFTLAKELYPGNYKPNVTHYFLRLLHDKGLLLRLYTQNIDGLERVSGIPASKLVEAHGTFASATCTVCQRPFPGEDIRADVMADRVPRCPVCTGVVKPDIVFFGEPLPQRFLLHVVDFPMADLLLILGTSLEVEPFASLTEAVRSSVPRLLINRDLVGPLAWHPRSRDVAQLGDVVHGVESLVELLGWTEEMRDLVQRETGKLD
# Protocol: (§1) The effect of the compounds on deacetylase activity of three human sirtuin isotypes (Sirt1–3) was investigated by a homogeneous fluorescence‐based assay, using (Z)‐Lys(acetyl)‐AMC (ZMAL) as substrate. In order to determine the impact of photoisomerization, the respective compounds were irradiated (365 nm, 5 min) in DMSO prior to incubation in the enzyme assay mixture. The results of the irradiated probes were finally compared to non‐irradiated measurements.
# (§2) Cloning, expression and purification of recombinant proteins: Expression and purification of Sirt1_133−747, Sirt2_56−356, and Sirt3_118−395 was carried out as described previously.27 Identity and purity were verified by SDS‐PAGE.
# (§3) Fluorescence‐based activity assay: The inhibitory effect of compounds on Sirt1–3 was detected via a previously reported fluorescence‐based assay.29 The synthetic substrate (Z)‐Lys(acetyl)‐AMC (ZMAL) is deacetylated by sirtuins, followed by tryptic digestion and thereby release of 7‐aminomethylcoumarin, leading to a fluorescent readout. Inhibition was determined by comparing percentage substrate conversion to a DMSO control after subtraction of the blank fluorescence signal. All compounds were tested at 100 or 50 μM and 10 μM respectively. […] IC50 values were calculated with OriginPro 9.0 G using a non‐linear regression to fit the dose response curve (Figure S6). An enzyme‐free blank control and a 100 % conversion control using AMC instead of ZMAL were measured as well. Inhibition measurements were performed in biological duplicates for all compounds. […]
# (§4) Fluorescence-Based Activity Assay (ZMAL-Assay)
# (§5) The influence of the synthesized compounds on the deacetylase activity of the class I sirtuins Sirt1–3 was determined in a homogenous fluorescence-based enzyme assay, using the artificial substrate Z-(Ac)Lys-AMC (ZMAL). ZMAL is processed by sirtuins yielding Z-Lys-AMC.
# (§6) The latter is subsequently cleaved by tryptic digestion, releasing 7-amino-4-methylcoumarin (AMC), excitation of which leads to a fluorescent read out (λex=390 nm; λem=460 nm). Instead, […]
# (§7) contribute to the fluorescence signal. Therefore, the fluorescence intensity is proportional to the activity of the respective sirtuin.
# (§8) After subtraction of the blank fluorescence signal (without enzyme) from the signal of the respective probe, the residual signal intensity is related to a 100 % conversion control (AMC), […]
# (§9) yielding the percentage substrate conversion. Comparison of the determined substrate conversion with a no-inhibition DMSO control yields the percentage inhibition at the respective […]
# (§10) For determination of IC50, inhibitory activity of the respective compound was determined at 8 to 10 distinct concentrations. The measured values were analysed by a non-linear fit to the dose-response curve using a four parameter logistic model (Figure S6):
# (§11) Figure S6: Non-linear regression of the dose-response curves of compounds 15c and 15f at the thermal equilibrium (∆, black) and after 5 minutes of 365 nm irradiation (red). […]
# (§12) A maximal polarization control using just DMSO and a minimal polarization control using 1 µL of the 400 µM solution of 22 instead of inhibitor were performed as well as a blank control containing 1 µL of DMSO in 19 µL assay buffer. The mixture was incubated 10 min at 37 °C
# Sirt1 = molecular target: T2, Sirt1 (Homo sapiens, UniProt Q96EB6); experiment: Fluorescence-based ZMAL deacetylase activity assay, Sirt1
# T2 construct: Expression and purification of Sirt1_133−747, Sirt2_56−356, and Sirt3_118−395 was carried out as described previously; made in house
# T2 sequence (Q96EB6 133-747): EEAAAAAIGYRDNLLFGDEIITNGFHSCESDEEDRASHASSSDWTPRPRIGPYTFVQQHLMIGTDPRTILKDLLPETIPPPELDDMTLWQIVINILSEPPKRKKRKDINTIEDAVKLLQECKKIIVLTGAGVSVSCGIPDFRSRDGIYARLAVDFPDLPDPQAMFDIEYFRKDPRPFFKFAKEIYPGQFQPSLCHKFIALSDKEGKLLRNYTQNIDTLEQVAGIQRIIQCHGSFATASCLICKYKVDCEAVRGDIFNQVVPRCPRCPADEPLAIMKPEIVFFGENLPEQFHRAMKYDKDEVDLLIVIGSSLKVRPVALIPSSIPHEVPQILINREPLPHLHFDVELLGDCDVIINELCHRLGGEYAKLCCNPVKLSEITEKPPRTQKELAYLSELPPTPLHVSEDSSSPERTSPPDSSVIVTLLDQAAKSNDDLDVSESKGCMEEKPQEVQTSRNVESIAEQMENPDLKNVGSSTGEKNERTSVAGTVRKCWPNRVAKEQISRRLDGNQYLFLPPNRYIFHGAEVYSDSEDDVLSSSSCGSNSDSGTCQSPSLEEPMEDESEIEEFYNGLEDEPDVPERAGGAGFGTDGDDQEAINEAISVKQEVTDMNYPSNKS
# Protocol: as §1, §2, §3, §4, §5, §6, §7, §8, §9, §10, §11
# A maximal polarization control using just DMSO and a minimal polarization control using 1 µL of the 400 µM solution of 22 instead of inhibitor were performed as well as a blank control containing 1 µL of DMSO in 19 µL assay buffer. The mixture was incubated 10 min at 37 °C […]
# (1 picture or pasted object on this page, not shown here)
# Sirt2 = molecular target: T3, Sirt2 (Homo sapiens, UniProt Q8IXJ6); experiment: Fluorescence-based ZMAL deacetylase activity assay, Sirt2; set-up: key to Sirt2 inhibition Δ (class): n.i.: no inhibition detected (<30 % @ 100 μM); u.i.: unspecific interactions
# T3 construct: Expression and purification of Sirt1_133−747, Sirt2_56−356, and Sirt3_118−395 was carried out as described previously; made in house
# T3 sequence (Q8IXJ6 56-356): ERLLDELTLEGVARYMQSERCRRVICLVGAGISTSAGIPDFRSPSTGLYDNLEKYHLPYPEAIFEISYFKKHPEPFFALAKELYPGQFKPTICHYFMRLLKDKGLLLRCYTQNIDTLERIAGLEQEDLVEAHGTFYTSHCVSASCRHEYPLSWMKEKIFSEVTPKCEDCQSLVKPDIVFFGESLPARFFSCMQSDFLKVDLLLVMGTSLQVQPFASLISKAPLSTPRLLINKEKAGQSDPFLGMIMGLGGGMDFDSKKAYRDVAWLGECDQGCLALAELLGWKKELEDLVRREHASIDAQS
# Protocol: as §1, §2, §3, §4, §5, §6, §7, §8, §9, §10, §11, §12
# [1] = PSS after 5 min UV irradiation (365 nm), read-out: Sirt3 inhibition PSS [365 nm], percent inhibition
# [2] = thermal equilibrium (Δ), read-out: Sirt3 inhibition Δ, percent inhibition
# [3] = PSS after 5 min UV irradiation (365 nm), read-out: Sirt1 inhibition PSS [365 nm] (class)
# [4] = thermal equilibrium (Δ), read-out: Sirt1 inhibition Δ (class)
# [5] = PSS 365 nm versus thermal equilibrium
# [6] = PSS after 5 min UV irradiation (365 nm), read-out: Sirt2 inhibition PSS [365 nm], IC50
# [7] = thermal equilibrium (Δ), read-out: Sirt2 inhibition Δ, IC50
# [8] = PSS after 5 min UV irradiation (365 nm)
# [9] = @ 100 μM, PSS after 5 min UV irradiation (365 nm), read-out: Sirt1 inhibition PSS [365 nm], percent inhibition
# [10] = @ 100 μM, thermal equilibrium (Δ), read-out: Sirt1 inhibition Δ, percent inhibition
# [11] = PSS after 5 min UV irradiation (365 nm), read-out: Sirt2 inhibition PSS [365 nm], percent inhibition (converted)
# [12] = thermal equilibrium (Δ), read-out: Sirt2 inhibition Δ, percent inhibition (converted)
Compound,inhibition at 100 µM (Sirt1; [3]),inhibition at 100 µM (Sirt1; [4]),IC50 (Sirt2; [6]),IC50 (Sirt2; [7]),Sirt3 inhibition PSS [365 nm] (class) (Sirt3; [8]),Sirt3 inhibition Δ (class) (Sirt3; thermal equilibrium (Δ)),inhibition at 10 µM (Sirt2; [11]),inhibition at 10 µM (Sirt2; [12]),also measured
NC(=O)c1cncc(OCc2cccc(/N=N/c3ccc(OCc4ccccc4)cc3)c2)c1 [20 a],< 30%,< 30%,1.6 ± 0.2 µM,0.7 ± 0.21 µM,–,–,–,–,inhibition at 10 µM (Sirt3; [1]): 24%; inhibition at 10 µM (Sirt3; [2]): 23%; decrease of Sirt2 inhibition upon 365 nm irradiation (factor) (Sirt2; [5]): twofold
CCCC(=O)Nc1c(C)cc(/N=N/c2cncc(C(N)=O)c2)cc1C [9 b],< 30%,< 30%,–,–,–,–,4%,30%,inhibition at 100 µM (Sirt3; [1]): 52%; inhibition at 100 µM (Sirt3; [2]): 80%
Cc1cc(/N=N/c2cncc(C(N)=O)c2)cc(C)c1NC(=O)C12CC3CC(CC(C3)C1)C2 [9 k],< 30%,< 30%,–,–,n.i. (n.i.: no inhibition detected (<30 % @ 100 μM)),n.i. (n.i.: no inhibition detected (<30 % @ 100 μM)),–,–,"inhibition at 100 µM (Sirt2; PSS after 5 min UV irradiation (365 nm), read-out: Sirt2 inhibition PSS [365 nm], percent inhibition): 71%; inhibition at 100 µM (Sirt2; thermal equilibrium (Δ), read-out: Sirt2 inhibition Δ, percent inhibition): 43%"
CCCCCCCCCC(=O)NCc1ccc(/N=N/c2cncc(C(N)=O)c2)cc1 [15 f],< 30%,< 30%,1.6 ± 0.2 µM,37 µM and 36.6 µM,n.i. (n.i.: no inhibition detected (<30 % @ 100 μM)),n.i. (n.i.: no inhibition detected (<30 % @ 100 μM)),–,–,increase of Sirt2 inhibition upon 365 nm irradiation (factor) (Sirt2; [5]): 23 fold
Cc1cc(/N=N/c2cncc(C(N)=O)c2)cc(C)c1N [7 f],–,–,–,–,–,–,–,–,"IC50 (Sirt3; non-irradiated, read-out: Sirt3 inhibition, IC50): 9 µM and 9.4 µM; inhibition at 100 µM (Sirt1; @ 100 μM, non-irradiated, read-out: Sirt1 inhibition, percent inhibition relative to controls): 47%; IC50 (Sirt2; non-irradiated, read-out: Sirt2 inhibition, IC50): 6 µM and 5.8 µM"
CCCCCCCCCC(=O)Nc1c(C)cc(/N=N/c2cncc(C(N)=O)c2)cc1C [9 e],< 30%,< 30%,–,–,u.i.,u.i.,78%,26%,–

# Now from value to compound, other results behind:
inhibition at 100 µM (Sirt1; [3]),inhibition at 100 µM (Sirt1; [4]),IC50 (Sirt2; [6]),IC50 (Sirt2; [7]),Sirt3 inhibition PSS [365 nm] (class) (Sirt3; [8]),Sirt3 inhibition Δ (class) (Sirt3; thermal equilibrium (Δ)),inhibition at 10 µM (Sirt2; [11]),inhibition at 10 µM (Sirt2; [12]),Compound,also measured
< 30%,< 30%,0.9 ± 0.2 µM,2.2 ± 0.3 µM,u.i.,u.i.,–,–,CCCCCCCCCCCCCC(=O)Nc1c(C)cc(/N=N/c2cncc(C(N)=O)c2)cc1C [9 g],–
–,–,6.9 ± 0.6 µM,3.9 ± 0.2 µM,–,–,–,–,CC(C)(C)OC(=O)Cc1ccc(/N=N/c2cncc(C(N)=O)c2)cc1 [15 b],inhibition at 10 µM (Sirt3; [1]): 30%; inhibition at 10 µM (Sirt3; [2]): 58%; inhibition at 100 µM (Sirt1; [9]): 44%; inhibition at 100 µM (Sirt1; [10]): 35%
< 30%,< 30%,7.9 ± 0.7 µM,44 ± 9.5 µM,u.i.,u.i.,54%,26%,CCCCCCCC(=O)Nc1c(C)cc(/N=N/c2cncc(C(N)=O)c2)cc1C [9 d],increase of Sirt2 inhibition upon 365 nm irradiation (factor) (Sirt2; [5]): about fivefold
–,–,6.2 ± 0.54 µM,–,–,u.i.,–,–,C#Cc1ccc(/N=N/c2cccc(COc3cncc(C(N)=O)c3)c2)cc1 [20 c],"IC50 (Sirt3; PSS after 5 min UV irradiation (365 nm), read-out: Sirt3 inhibition PSS [365 nm], IC50): 17.2 ± 1.57 µM; inhibition at 100 µM (Sirt1; [9]): 62%; inhibition at 100 µM (Sirt1; [10]): 45%; Sirt2 inhibition Δ (class) (Sirt2; thermal equilibrium (Δ)): u.i."

# Reference: article PMC7496931, “Activation of Sirtuin 2 Inhibitors Employing Photoswitchable Geometry and Aqueous Solubility” (Chemmedchem, 2020)
